{
  "source": "patent US9119881B2",
  "about": "“Method of synergistically enhancing the therapeutic efficacy and safety of medication through a combination therapy” (priority 2010, dated 2015)",
  "key": {"[1]": {"test_system": "retinoid X receptor (RXR)", "assay": "RXR luciferase reporter in transfected 3T3-L1 preadipocytes", "type": "cell-based", "details": "ABA 10 μM with 9-cis retinoic acid 10 μM", "method": "A pCMX.L-RXR or pCMX.RAR expression plasmid and a luciferase reporter plasmid were purified using Qiagen's Maxi kit (Valencia, Calif.). 3T3-L1 preadipocytes (American Type Culture Collection, Manassas, Va.) were grown in DMEM high glucose medium (Invitrogen, Carlsbad, Calif.) containing 10% fetal bovine serum (FBS). The cells cultured in 25 cm^2 flasks were co-transfected with 0.6 ug plasmid DNA and 1 ng of pRL reporter control plasmid per well using F-2 transfection reagents (Targeting Systems, Santee, Calif.) according to the manufacturer's protocol. After 24 hours, transfected cells were split trypsin and seeded into 96-well white plates at a concentration of 20,000 cells/wells. The transfected cells were then treated with 9-cis retinoic acid (0, 10 μM; Sigma), or retinoic acid (RA, 10 μM; Sigma), with ABA (10 μM; Sigma) Transfected cells were harvested in reporter lysis reagent. Luciferase activity, normalized to pRL activity in the cell extracts was determined by using the dual luciferase reporter assay system (Promega, Madison, Wis.) in a Modulus 96-well plate reader (Turner Biosystems, Sunnyvale, Calif.). Relative luciferase activity (RLA) was calculated as a ratio of the chemiluminescence 10 seconds after the Luciferase Assay Reagent II (Promega) was added over the chemiluminescence 10 seconds after the Stop&Glo Reagent (Promega)."}, "F4/80+CD11b+ macrophages": {"test_system": "F4/80+CD11b+ macrophages", "assay": "Macrophage infiltration into white adipose tissue of db/db mice, flow cytometry", "type": "in vivo", "details": "day 60", "method": "Obese db/db mice were fed high-fat diets containing 0, 15, or 70 mg/kg diet rosiglitazone maleate (control, Ros^lo, and Ros^hi, respectively) with and without racemic ABA (100 mg/kg diet). On day 60 the percent of F4/80+CD11b+ in the stromal vascular fractions of abdominal white adipose tissue (Ab. WAT) (A) and subcutaneous WAT (B) were assessed by flow cytometry. The percent of CD11b+CCR2+ monocytes (C) and CD4+CD25+FoxP3+ Tregs (D) in blood were assessed in whole blood. The expressions of the M1 marker CCL17 (E) and peroxisome proliferator activated receptor γ (PPAR γ) (F) in Ab. WAT were calculated as a ratio to the housekeeping gene f3-actin. Data are represented as mean±standard error.\nMice (n=40) were fed one of six experimental diets: a control high-fat diet (control), a high-fat diet containing low dose rosiglitazone maleate (Ros^lo, 10 mg/kg diet), or a high-fat diet containing a high dose of rosiglitazone maleate (Ros^hi, 70 mg/kg diet), each with or without all racemic ABA (100 mg/kg, Sigma Aldrich, St. Louis, Mo.) for 60 days. […] Blood glucose levels were assessed with an ACCU-CHEK® Glucometer (Roche, Indianapolis, Ind.). An intraperitoneal glucose tolerance test (IPGTT, 1 g glucose/kg body weight) was conducted on fasted mice (12 h) for 0, 30, 90, and 180 minute time points and insulin levels were measured on day 54. […]"}},
  "data": [
    {"smiles": "CC1=CC(=O)CC(C)(C)C1(O)/C=C/C(C)=C\\C(=O)O", "note": "(racemic) [ABA, abscisic acid]", "values": [
      {"measurement": "activity of RXR ligands", "setting": "[1]", "result": "synergistically enhances"},
      {"measurement": "ATM infiltration in SCAT", "setting": "F4/80+CD11b+ macrophages; db/db mice fed the control and Ros^lo diets", "result": "significantly reduced"},
      {"measurement": "macrophage (ATM) infiltration into Ab. WAT", "setting": "F4/80+CD11b+ macrophages; db/db mice, ABA 100 mg/kg diet, Ros^lo, or both, relative to the control diet", "result": "little effect"}
    ]}
  ]
}
